Test results from patent US4732970A, “Antitumor amino acid and peptide derivatives of 1,4-bis(aminoalkyl and hydroxy-aminoalkyl)amino)-5,8-dihydroxyanthraquinones” (priority 1986, dated 1988).

Tested on: lymphocytic leukemia P388
Assay: Lymphocytic Leukemia P388 Test
Format: in vivo, BDF1 mice
Conditions: for Median Survival: BDF1 mice; for T/C × 100 (%): ratio of survival time treated/control
Method: The animals used were BDF1 mice, all of one sex, weighing a minimum of 18 g and all within a 3 g weight range. There were 5 or 6 mice per test group. The tumor transplant was by intraperitoneal injection of 0.5 ml of dilute ascitic fluid containing 10^6 cells of lymphocytic leukemia P388. The test compounds were administered intraperitoneally on days 1, 5 and 9 (relative to tumor inocu-lation) at various doses. The animals were weighed and survivors recorded on a regular basis for 60 days. The median survival time and the ratio of survival time for treated (T)/control (C) animals were calculated.

[1] = dose 0.75 mg/kg intraperitoneally on days 1, 5 and 9
[2] = dose 1.5 mg/kg intraperitoneally on days 1, 5 and 9
[3] = dose 3 mg/kg intraperitoneally on days 1, 5 and 9

SMILES: CC(C)(C)OC(=O)N[C@@H](CO)C(=O)NCCNc1ccc(NCCNC(=O)[C@H](CO)NC(=O)OC(C)(C)C)c2c1C(=O)c1c(O)ccc(O)c1C2=O (relative stereo) [Example 14, [S-(R*,R*)]-N,N'-[(9,10-Dihydro-5,8-dihydroxy-9,10-dioxo-1,4-anthracenediyl)bis[imino-2,1-ethanediylimino-[1-(hydroxymethyl)-2-oxo-2,1-ethanediyl]]]bis-carbamic acid, bis(1,1-dimethylethyl)ester]
- Median Survival [1]: 13.5 days
- T/C × 100 (%) [1]: 123%
- Median Survival [2]: 16.0 days
- T/C × 100 (%) [2]: 145%
- Median Survival [3]: 17.5 days
- T/C × 100 (%) [3]: 159%

SMILES: Cl.Cl.N[C@@H](Cc1ccccc1)C(=O)NCCNc1ccc(NCCNC(=O)[C@@H](N)Cc2ccccc2)c2c1C(=O)c1c(O)ccc(O)c1C2=O (relative stereo) [Example 17, [S-(R*,R*)]-N,N'-[(9,10-Dihydro-5,8-dihydroxy-9,10-dioxo-1,4-anthracenediyl)bis(imino-2,1-ethanediyl)]bis[2-aminobenzenepropanamide], dihydrochloride]
- Median Survival [1]: 22.5 days
- T/C × 100 (%) [1]: 188%
- Median Survival [2]: 23.0 days
- T/C × 100 (%) [2]: 192%
- Median Survival [3]: 19.5 days
- T/C × 100 (%) [3]: 163%

SMILES: CC[C@H](C)[C@H](N)C(=O)NCCNc1ccc(NCCNC(=O)[C@@H](N)[C@@H](C)CC)c2c1C(=O)c1c(O)ccc(O)c1C2=O.Cl.Cl (relative stereo) [Example 21, [S-(R*,R*,R*,R*)]-N,N'-[(9,10-Dihydro-5,8-dihydroxy-9,10-dioxo-1,4-anthracenediyl)bis(imino-2,1-ethanediyl)]bis-[2-amino-3-methylpentanamide], dihydrochloride]
- Median Survival [1]: 18.5 days
- T/C × 100 (%) [1]: 185%
- Median Survival [2]: 18.0 days
- T/C × 100 (%) [2]: 180%
- Median Survival [3]: 22.5 days
- T/C × 100 (%) [3]: 225%

SMILES: CSCC[C@H](N)C(=O)NCCNc1ccc(NCCNC(=O)[C@@H](N)CCSC)c2c1C(=O)c1c(O)ccc(O)c1C2=O.Cl.Cl (relative stereo) [Example 22, [S-(R*,R*)]N,N'(9,10-Dihydro-5,8-dihydroxy-9,10-dioxo-1,4-anthracenediyl)bis(imino-2,1-ethanediyl)]-bis[2-amino-4-(methylthio)butanamide], dihydrochloride]
- Median Survival [1]: 17.0 days
- T/C × 100 (%) [1]: 170%
- Median Survival [2]: 20.5 days
- T/C × 100 (%) [2]: 205%
- Median Survival [3]: 25.5 days
- T/C × 100 (%) [3]: 255%

SMILES: CC(C)[C@H](N)C(=O)NCCNc1ccc(NCCNC(=O)[C@@H](N)C(C)C)c2c1C(=O)c1c(O)ccc(O)c1C2=O.Cl.Cl (relative stereo) [Example 24, [S-(R*,R*)]-N,N'-[(9,10-Dihydro-5,8-dihydroxy-9,10-dioxo-1,4-anthracenediyl)bis(imino-2,1-ethanediyl)]bis-[2-Amino-3-methylbutanamide], dihydrochloride]
- Median Survival [1]: 18.5 days
- T/C × 100 (%) [1]: 185%
- Median Survival [2]: 20.0 days
- T/C × 100 (%) [2]: 200%
- Median Survival [3]: 20.0 days
- T/C × 100 (%) [3]: 200%

SMILES: CC(C)C[C@@H](N)C(=O)N(CCO)CCNc1ccc(NCCN(CCO)C(=O)[C@H](N)CC(C)C)c2c1C(=O)c1c(O)ccc(O)c1C2=O.O=C(O)C(F)(F)F.O=C(O)C(F)(F)F.O=C(O)C(F)(F)F (relative stereo) [Example 29, [R-(R*,R*)]-N,N'-[(9,10-Dihydro-5,8-dihydroxy-9,10-dioxo-1,4-anthracenediyl)bis(imino-2,1-ethanediyl)]bis-[2-amino-N-(2-hydroxyethyl)-4-methylpentanamide]tris(trifluoroacetate)]
- Median Survival [1]: 12.0 days
- T/C × 100 (%) [1]: 109%
- Median Survival [2]: 13.0 days
- T/C × 100 (%) [2]: 118%
- Median Survival [3]: 15.5 days
- T/C × 100 (%) [3]: 141%

SMILES: Br.Br.N[C@@H](CS)C(=O)NCCNc1ccc(NCCNC(=O)[C@@H](N)CS)c2c1C(=O)c1c(O)ccc(O)c1C2=O (relative stereo) [Example 35, R-(R*,R*)]-N,N'-[(9,10-Dihydro-5,8-dihydroxy-9,10-dioxo-1,4-anthracenediyl)bis(imino-2,1-ethanediyl)]bis[2-amino-3-mercaptopropanamide], dihydrobromide]
- Median Survival [1]: 21.0 days
- T/C × 100 (%) [1]: 210%
- Median Survival [2]: 23.0 days
- T/C × 100 (%) [2]: 230%
- Median Survival [3]: 24.5 days
- T/C × 100 (%) [3]: 245%

SMILES: N[C@@H](CO)C(=O)NCCNc1ccc(NCCNC(=O)[C@@H](N)CO)c2c1C(=O)c1c(O)ccc(O)c1C2=O.O=C(O)C(F)(F)F.O=C(O)C(F)(F)F (relative stereo) [Example 36, [S-(R*,R*)]-N,N'-(9,10-Dihydro-5,8-dihydroxy-9,10-dioxo-1,4-anthracenediyl)bis(imino-2,1-ethanediyl)]bis[2-amino-3-hydroxyropanamide]bis(trifluoroacetate)]
- Median Survival [1]: 19.0 days
- T/C × 100 (%) [1]: 173%
- Median Survival [2]: 19.0 days
- T/C × 100 (%) [2]: 173%
- Median Survival [3]: 23.5 days
- T/C × 100 (%) [3]: 214%

SMILES: Cl.Cl.N[C@@H](Cc1ccc(O)cc1)C(=O)NCCNc1ccc(NCCNC(=O)[C@@H](N)Cc2ccc(O)cc2)c2c1C(=O)c1c(O)ccc(O)c1C2=O (relative stereo) [Example 37, [S-(R*,R*)]-N,N'-[(9,10-Dihydro-5,8-dihydroxy-9,10-dioxo-1,4anthracenediyl)bis(imino-2,1-ethanediyl)]bis-[2,-amino-3-(4-hydroxyphenyl)-propanamide, dihydrochloride]
- Median Survival [1]: 25.0 days
- T/C × 100 (%) [1]: 227%
- Median Survival [2]: 23.5 days
- T/C × 100 (%) [2]: 214%
- Median Survival [3]: 23.5 days
- T/C × 100 (%) [3]: 214%

SMILES: CC(C)(C)OC(=O)C[C@H](NC(=O)OCC1c2ccccc2-c2ccccc21)C(=O)NCCNc1ccc(NCCNC(=O)[C@H](CC(=O)OC(C)(C)C)NC(=O)OCC2c3ccccc3-c3ccccc32)c2c1C(=O)c1c(O)ccc(O)c1C2=O (relative stereo) [Example 38, [S-R*,R*)]-4,4'-[(9,10-Dihydro-5,8-dihydroxy-D9,10-dioxo-1,4-anthracenediyl)bis(imino-2,1-ethanediylimino)]bis[3-[[9H-fluoren-9-ylmethoxycarbonyl]amino]-4-oxobut anoic acid],bis(1,1-dimethyl)ester]
- Median Survival [1]: 13.0 days
- T/C × 100 (%) [1]: 108%
- Median Survival [2]: 15.0 days
- T/C × 100 (%) [2]: 125%
- Median Survival [3]: 16.0 days
- T/C × 100 (%) [3]: 133%

SMILES: CC(C)(C)OC(=O)C[C@H](N)C(=O)NCCNc1ccc(NCCNC(=O)[C@@H](N)CC(=O)OC(C)(C)C)c2c1C(=O)c1c(O)ccc(O)c1C2=O (relative stereo) [Example 39, [S-(R*,R*)]-4,4'-[(9,10-Dihydro-5,8-dihydroxy-9,10-dioxo-1,4-anthracenediyl)bis(imino-2,1-ethanediylimino)]bis[3-amino-4-oxobutanoic acid]bis(1,1-dimethylethyl)ester]
- Median Survival [1]: 21.5 days
- T/C × 100 (%) [1]: 179%
- Median Survival [2]: 19.5 days
- T/C × 100 (%) [2]: 163%
- Median Survival [3]: 19.0 days
- T/C × 100 (%) [3]: 158%

SMILES: N[C@@H](CC(=O)O)C(=O)NCCNc1ccc(NCCNC(=O)[C@@H](N)CC(=O)O)c2c1C(=O)c1c(O)ccc(O)c1C2=O.O=C(O)C(F)(F)F.O=C(O)C(F)(F)F (relative stereo) [Example 40, S-(R*,R*)]-4,4'-[(9,10-Dihydro-5,8-dihydroxy-9,10-dioxo-1,4-anthracenediyl)bis(imino-2,1-ethanediylimino)]bis[3amino-4-oxobutanoic acid]bis(trifluoroacetate)]
- Median Survival [1]: 23.0 days
- T/C × 100 (%) [1]: 192%
- Median Survival [2]: 19.5 days
- T/C × 100 (%) [2]: 163%
- Median Survival [3]: 23.0 days
- T/C × 100 (%) [3]: 192%

SMILES: CC(C)(C)OC(=O)N[C@@H](COCc1ccccc1)C(=O)NCCNc1ccc(NCCNC(=O)[C@H](COCc2ccccc2)NC(=O)OC(C)(C)C)c2c1C(=O)c1c(O)ccc(O)c1C2=O (relative stereo) [Example 41, S-(R*,R*)]-N,N'-[(9,10-Dihydro-5,8-dihydroxy-9,10-dioxo-1,4-anthracenediyl)bis[imino-2,1-ethanediylimino-[2-oxo-1-[(phenylmethoxy)methyl]-2,1-ethanediyl]]]biscarbamic acid, bis(1,1-dimethylethyl)ester]
- Median Survival [1]: 12.0 days
- T/C × 100 (%) [1]: 120%
- Median Survival [2]: 13.5 days
- T/C × 100 (%) [2]: 135%
- Median Survival [3]: 15.5 days
- T/C × 100 (%) [3]: 155%

SMILES: N[C@@H](COCc1ccccc1)C(=O)NCCNc1ccc(NCCNC(=O)[C@@H](N)COCc2ccccc2)c2c1C(=O)c1c(O)ccc(O)c1C2=O.O=C(O)C(F)(F)F.O=C(O)C(F)(F)F (relative stereo) [Example 42, [S-(R*,R*)]-N,N'-[(9,10-Dihydro-5,8-dihydroxy-9,10-dioxo-1,4-anthracenediyl)bis[imino-2,1-ethanediyl)]bis[2-amino-3-(phenylmethoxy)-propanamide]bis(trifluoroacetate)]
- Median Survival [1]: 19.5 days
- T/C × 100 (%) [1]: 195%
- Median Survival [2]: 21.5 days
- T/C × 100 (%) [2]: 215%
- Median Survival [3]: 19.5 days
- T/C × 100 (%) [3]: 195%
